What was measured:
Experiment in all cases: Bystander BRET endosomal trafficking (β-arrestin 1-Nluc, FYVE-mVenus), HEK293 (SSTR2 mutants);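 also: Read-out is the BRET ratio between Nluc-fused β-arrestin 1 and the early endosome marker FYVE-mVenus, measured after ligand addition with coelenterazine h as substrate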;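 as to Bottom: percent of maximal wild-type response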;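 as to Span: percent of maximal wild-type response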;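 as to Top: percent of maximal wild-type response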
[1] = target: SSTR2 mutants (Homo sapiens, UniProt P30874, I284A); settings: for Bottom: Best-fit values
SSTR2 mutants (Homo sapiens, UniProt P30874, I284A), sequence (P30874 whole entry I284A): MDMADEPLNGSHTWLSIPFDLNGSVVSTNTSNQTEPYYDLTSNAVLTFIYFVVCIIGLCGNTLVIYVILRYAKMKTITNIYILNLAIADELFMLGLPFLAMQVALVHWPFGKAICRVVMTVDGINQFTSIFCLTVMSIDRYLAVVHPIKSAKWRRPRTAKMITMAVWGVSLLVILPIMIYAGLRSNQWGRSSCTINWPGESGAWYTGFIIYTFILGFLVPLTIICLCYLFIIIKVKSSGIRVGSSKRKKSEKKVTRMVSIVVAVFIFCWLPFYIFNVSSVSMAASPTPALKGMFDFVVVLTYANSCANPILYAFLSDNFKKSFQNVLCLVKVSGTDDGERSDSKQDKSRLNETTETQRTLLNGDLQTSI
Description: (§1) Wild-type or mutant SSTR2, β-arrestin 1-Nluc and FYVE-mVenus were co-transfected in HEK293 cells at a ratio of 1:0.5:4 on six-well plates. The next day, the transfected cells were plated on white 96-well and incubated overnight, and then cells were incubated with 90 µL HBSS containing 20 mM HEPES and coelenterazine h (5 µM) at room temperature for 40 min. After incubation, ligand was added and the signal was measured using the Synergy H1 microplate reader (BioTek) to determine a BRET ratio.

[2] = target: SSTR2 mutants (Homo sapiens, UniProt P30874, Y312A); settings: Best-fit values
SSTR2 mutants (Homo sapiens, UniProt P30874, Y312A), sequence (P30874 whole entry Y312A): as the sequence (P30874 whole entry I284A) above, with A284I, Y312A counted along it
Description: as §1

[3] = target: SSTR2 mutants (Homo sapiens, UniProt P30874, I130A); settings: HEK293
SSTR2 mutants (Homo sapiens, UniProt P30874, I130A), sequence (P30874 whole entry I130A): as the sequence (P30874 whole entry I284A) above, with I130A, A284I counted along it
Description: as §1

[4] = target: SSTR2 mutants (Homo sapiens, UniProt P30874, K291A); settings: for Bottom: best-fit
SSTR2 mutants (Homo sapiens, UniProt P30874, K291A), sequence (P30874 whole entry K291A): as the sequence (P30874 whole entry I284A) above, with A284I, K291A counted along it
Description: as §1

[5] = target: SSTR2 mutants (Homo sapiens, UniProt P30874, W269A); settings: for Bottom: Best-fit values
SSTR2 mutants (Homo sapiens, UniProt P30874, W269A), sequence (P30874 whole entry W269A): as the sequence (P30874 whole entry I284A) above, with W269A, A284I counted along it
Description: as §1

[6] = target: SSTR2 mutants (Homo sapiens, UniProt P30874, F265A); settings: HEK293
SSTR2 mutants (Homo sapiens, UniProt P30874, F265A), sequence (P30874 whole entry F265A): as the sequence (P30874 whole entry I284A) above, with F265A, A284I counted along it
Description: as §1

[7] = tested on: SSTR2 mutants
Description: as §1

[8] = target: SSTR2 mutants (Homo sapiens, UniProt P30874, R140A); settings: Best-fit values
SSTR2 mutants (Homo sapiens, UniProt P30874, R140A), sequence (P30874 whole entry R140A): as the sequence (P30874 whole entry I284A) above, with R140A, A284I counted along it
Description: as §1

[9] = target: SSTR2 mutants (Homo sapiens, UniProt P30874, P220A); settings: for Bottom: Best-fit values
SSTR2 mutants (Homo sapiens, UniProt P30874, P220A), sequence (P30874 whole entry P220A): as the sequence (P30874 whole entry I284A) above, with P220A, A284I counted along it
Description: as §1

Compound `C[C@@H](O)[C@@H]1NC(=O)[C@H](CCCCN)NC(=O)[C@@H](Cc2c[nH]c3ccccc23)NC(=O)[C@H](Cc2ccccc2)NC(=O)[C@@H](NC(=O)[C@H](N)Cc2ccccc2)CSSC[C@@H](C(=O)N[C@H](CO)[C@@H](C)O)NC1=O` [octreotide] has a Bottom ([1]; I284A-1) of 1.002, a Bottom ([1]; I284A-2) of 9.91 and an Emax ([1]; HEK293) of 94.8 ± 4.62%. The Bottom ([2]; Y312A-1) was 0.5637, the Bottom ([2]; Y312A-2) was -0.6682 and the Emax [3] was 68.2 ± 4.05%. The Emax ([4]; HEK293) was 68 ± 8.22%, the Bottom ([4]; K291A-1, run 1) was -10.2 and the Bottom ([4]; K291A-2, run 2) was 2.053. The Bottom ([5]; W269A-1) was -0.7468, the Bottom ([5]; W269A-2) was -3.268 and the Emax ([5]; HEK293) was 14.5 ± 3.19%. The Emax [6] was 56.1 ± 4.14%, the LogEC50 ([7]; Best-fit values, I284A-1) was -6.559 and the Top ([7]; Best-fit values, I284A-1) was 94.85. The LogEC50 ([7]; Best-fit values, I284A-2) was -7.171, the Top ([7]; Best-fit values, I284A-2) was 92.19 and the LogEC50 ([7]; Best-fit values, P220A-1) was -6.023. It also gave a Span ([7]; Best-fit values, P220A-1) of 31.36, a Top ([7]; Best-fit values, P220A-1) of 20.27 and a LogEC50 ([7]; Best-fit values, P220A-2) of -7.589. For the same compound, the Span ([7]; Best-fit values, P220A-2) was 32.52, the Top ([7]; Best-fit values, P220A-2) was 39.01 and the LogEC50 ([7]; Best-fit values, R140A-1) was -8.238. For the same compound, the Span ([7]; Best-fit values, R140A-1) was 48.38, the Top ([7]; Best-fit values, R140A-1) was 48.39 and the LogEC50 ([7]; Best-fit values, R140A-2) was -8.282. For the same compound, the Span ([7]; Best-fit values, R140A-2) was 47.34, the Top ([7]; Best-fit values, R140A-2) was 46.25 and the EC50 ([7]; Best-fit values, W269A-1) was 0.642 nM. The LogEC50 ([7]; Best-fit values, W269A-1) was -9.192, the Span ([7]; Best-fit values, W269A-1) was 18.76 and the Top ([7]; Best-fit values, W269A-1) was 18.02. For the same compound, the EC50 ([7]; Best-fit values, W269A-2) was 0.132 nM, the LogEC50 ([7]; Best-fit values, W269A-2) was -9.88 and the Span ([7]; Best-fit values, W269A-2) was 17.57. For the same compound, the Top ([7]; Best-fit values, W269A-2) was 14.3, the EC50 ([7]; Best-fit values, Y312A-1) was 10.2 nM and the LogEC50 ([7]; Best-fit values, Y312A-1) was -7.991. For the same compound, the Span ([7]; Best-fit values, Y312A-1) was 45.08, the Top ([7]; Best-fit values, Y312A-1) was 45.64 and the EC50 ([7]; Best-fit values, Y312A-2) was 10.3 nM. The LogEC50 ([7]; Best-fit values, Y312A-2) was -7.988, the Span ([7]; Best-fit values, Y312A-2) was 40.73 and the Top ([7]; Best-fit values, Y312A-2) was 40.06. For the same compound, the “Internalization of microswitch mutants” value ([7]; alanine substitution of microswitch residues) was “reduced receptor internalization”, the EC50 ([7]; best-fit, I284A-1, run 1) was 276 nM and the Span ([7]; best-fit, I284A-1, run 1) was 93.85. For the same compound, the EC50 ([7]; best-fit, I284A-2, run 2) was 67.5 nM, the Span ([7]; best-fit, I284A-2, run 2) was 82.28 and the EC50 ([7]; best-fit, K291A-1, run 1) was 1610 nM. The LogEC50 ([7]; best-fit, K291A-1, run 1) was -5.793, the Span ([7]; best-fit, K291A-1, run 1) was 78.24 and the Top ([7]; best-fit, K291A-1, run 1) was 68.05. It also gave an EC50 ([7]; best-fit, K291A-2, run 2) of 615 nM, a LogEC50 ([7]; best-fit, K291A-2, run 2) of -6.211 and a Span ([7]; best-fit, K291A-2, run 2) of 78.94. It also gave a Top ([7]; best-fit, K291A-2, run 2) of 80.99, a Bottom ([8]; R140A-1) of 0.00472 and a Bottom ([8]; R140A-2) of -1.087. It also gave a Bottom ([9]; P220A-1) of -11.09, a Bottom ([9]; P220A-2) of 6.493 and an Emax ([9]; HEK293) of 20.3 ± 8.01%.

Reference: PMC9944328 (Nature Communications, 2023)
